Measured values published in ChEMBL document CHEMBL1125145, “Antimicrobial properties of N3-(iodoacetyl)-L-2,3-diaminopropanoic acid-peptide conjugates” (1990).

Experiments:
[1] = tested on: Candida albicans; test: Intracellular cleavage exhibited in Candida albicans ATCC 26278; format: functional
[2] = tested on: Candida albicans; test: Rate of transport of compound in Candida albicans ATCC 26278; format: functional

Structure (SMILES) | Cleavage rate [1] | Transport rate [2]
CSCCC(N)C(=O)NC(CNC(=O)CI)C(=O)O (centres undefined) | 3.1 µmol/min/mg | 1.9 µmol/min/mg
CCC[C@H](NC(=O)[C@H](N)CCSC)C(=O)N[C@@H](CNC(=O)CI)C(=O)O | – | 0.5 µmol/min/mg
CCC[C@H](NC(=O)[C@@H](N)CCSC)C(=O)N[C@@H](CNC(=O)CI)C(=O)O | 3.8 µmol/min/mg | –
